Measurements from paper PMC12649549, “Sequence Permutation Generated Lysine and Tryptophan-Rich Antimicrobial Peptides with Enhanced Therapeutic Index” (Antibiotics, 2025).
Like-named read-outs stand apart in the source and are kept apart here.

Assays:
Gram-positive bacteria = assay: Geometric mean MIC and therapeutic index, Gram-positive bacteria; type: cell-based; settings: Gram-positive bacteria; for GM G+ (geometric mean of the MIC values): MH broth, MIC >50 µg/mL counted as 100 µg/mL; for Therapeutic Index (TI) G+: HC10/GM
In short: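 Selectivity index derived from human red blood cell HC10 relative to geometric mean MIC. Inoculum was 5 × 10^5 CFU/mL in Müller-Hinton or modified LYM broth, and each experiment was repeated independently three times.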

S. aureus ATCC 33592 = tested on: S. aureus ATCC 33592
In short: (§1)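 Salt and pH tolerance was assessed by determining MICs in LYM medium containing 50–300 mM NaCl, 0.5–2.5 mM MgCl2, or at pH 4.5–6.5, alongside MH broth. The inoculum was 5 × 10^5 CFU/mL.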

[1] = tested on: A. baumannii 14B00100 (Acinetobacter sp., BCRC number 14B0100)
In short: as §1

S. aureus ATCC 33593 = tested on: S. aureus ATCC 33593
In short: as §1

S. aureus ATCC 33591 = tested on: S. aureus ATCC 33591
In short: as §1

[2] = LYM broth, 0 mM NaCl, 16 h, 37 °C
[3] = LYM broth, 50 mM NaCl, 16 h, 37 °C
[4] = LYM broth, 100 mM NaCl, 16 h, 37 °C
[5] = LYM broth, 200 mM (NaCl), 16 h, 37 °C
[6] = LYM broth, 300 mM (NaCl), 16 h, 37 °C
[7] = MH broth, 5 × 10^5 CFU/mL, 16 h, 37 °C, repeated three times

Substance: Ac-WLKWLAKKKKWRK-NH2 [Peptide W5K05]
- GM G+ (geometric mean of the MIC values) (Gram-positive bacteria): 33.0 µg/mL
- Therapeutic Index (TI) G+ (Gram-positive bacteria): 3.3
- MIC (S. aureus ATCC 33592; [2]): 6.25 µg/mL
- MIC (S. aureus ATCC 33592; LYM broth, 0.5 mM MgCl2): 12.5 µg/mL
- MIC (S. aureus ATCC 33592; LYM broth, 1.5 mM MgCl2): 12.5 µg/mL
- MIC (S. aureus ATCC 33592; LYM broth, 2.5 mM MgCl2): 12.5 µg/mL
- MIC (S. aureus ATCC 33592; [3]): 12.5 µg/mL
- MIC (S. aureus ATCC 33592; [4]): 12.5 µg/mL
- MIC (S. aureus ATCC 33592; [5]): 25 µg/mL
- MIC (S. aureus ATCC 33592; [6]): 50 µg/mL
- MIC (S. aureus ATCC 33592; LYM broth, pH 4.5): 6.25 µg/mL
- MIC (S. aureus ATCC 33592; LYM broth, pH 5.5): 6.25 µg/mL
- MIC (S. aureus ATCC 33592; LYM broth, pH 6.5): 3.13 µg/mL
- MIC (S. aureus ATCC 33592; [7]): 50 µg/mL
- MIC [1, 2]: 0.78 µg/mL
- MIC ([1]; LYM broth, 0.5 mM MgCl2): 1.56 µg/mL
- MIC ([1]; LYM broth, 1.5 mM MgCl2): 1.56 µg/mL
- MIC ([1]; LYM broth, 2.5 mM MgCl2): 1.56 µg/mL
- MIC [1, 3]: 1.56 µg/mL
- MIC [1, 4]: 3.13 µg/mL
- MIC [1, 5]: 6.25 µg/mL
- MIC [1, 6]: 12.5 µg/mL
- MIC ([1]; LYM broth, pH 4.5): 1.56 µg/mL
- MIC ([1]; LYM broth, pH 5.5): 1.56 µg/mL
- MIC ([1]; LYM broth, pH 6.5): 1.56 µg/mL
- MIC [1, 7]: 12.5 µg/mL
- MIC (S. aureus ATCC 33593; [2]): 6.25 µg/mL
- MIC (S. aureus ATCC 33593; LYM broth, 0.5 mM MgCl2): 12.5 µg/mL
- MIC (S. aureus ATCC 33593; LYM broth, 1.5 mM MgCl2): 12.5 µg/mL
- MIC (S. aureus ATCC 33593; LYM broth, 2.5 mM MgCl2): 12.5 µg/mL
- MIC (S. aureus ATCC 33593; [3]): 6.25 µg/mL
- MIC (S. aureus ATCC 33593; [4]): 12.5 µg/mL
- MIC (S. aureus ATCC 33593; [5]): 25 µg/mL
- MIC (S. aureus ATCC 33593; [6]): 50 µg/mL
- MIC (S. aureus ATCC 33593; LYM broth, pH 4.5): 3.13 µg/mL
- MIC (S. aureus ATCC 33593; LYM broth, pH 5.5): 3.13 µg/mL
- MIC (S. aureus ATCC 33593; LYM broth, pH 6.5): 3.13 µg/mL
- MIC (S. aureus ATCC 33593; [7]): 50 µg/mL
- MIC (S. aureus ATCC 33591; [2]): 6.25 µg/mL
- MIC (S. aureus ATCC 33591; LYM broth, 0.5 mM MgCl2): 6.25 µg/mL
- MIC (S. aureus ATCC 33591; LYM broth, 1.5 mM MgCl2): 12.5 µg/mL
- MIC (S. aureus ATCC 33591; LYM broth, 2.5 mM MgCl2): 12.5 µg/mL
- MIC (S. aureus ATCC 33591; [3]): 6.25 µg/mL
- MIC (S. aureus ATCC 33591; [4]): 12.5 µg/mL
- MIC (S. aureus ATCC 33591; [5]): 25 µg/mL
- MIC (S. aureus ATCC 33591; [6]): 50 µg/mL
- MIC (S. aureus ATCC 33591; LYM broth, pH 4.5): 6.25 µg/mL
- MIC (S. aureus ATCC 33591; LYM broth, pH 5.5): 3.13 µg/mL
- MIC (S. aureus ATCC 33591; LYM broth, pH 6.5): 3.13 µg/mL
- MIC (S. aureus ATCC 33591; [7]): 50 µg/mL

Substance: Ac-WRKWLKWLAKKKK-NH2 [Peptide W5K02]
- GM G+ (geometric mean of the MIC values) (Gram-positive bacteria): 21.8 µg/mL
- Therapeutic Index (TI) G+ (Gram-positive bacteria): 0.8
- MIC (S. aureus ATCC 33592; [2]): 6.25 µg/mL
- MIC (S. aureus ATCC 33592; LYM broth, 0.5 mM MgCl2): 6.25 µg/mL
- MIC (S. aureus ATCC 33592; LYM broth, 1.5 mM MgCl2): 6.25 µg/mL
- MIC (S. aureus ATCC 33592; LYM broth, 2.5 mM MgCl2): 6.25 µg/mL
- MIC (S. aureus ATCC 33592; [3]): 6.25 µg/mL
- MIC (S. aureus ATCC 33592; [4]): 12.5 µg/mL
- MIC (S. aureus ATCC 33592; [5]): 50 µg/mL
- MIC (S. aureus ATCC 33592; [6]): >50 µg/mL
- MIC (S. aureus ATCC 33592; LYM broth, pH 4.5): 6.25 µg/mL
- MIC (S. aureus ATCC 33592; LYM broth, pH 5.5): 6.25 µg/mL
- MIC (S. aureus ATCC 33592; LYM broth, pH 6.5): 6.25 µg/mL
- MIC (S. aureus ATCC 33592; [7]): 25 µg/mL
- MIC [1, 2]: 1.56 µg/mL
- MIC ([1]; LYM broth, 0.5 mM MgCl2): 1.56 µg/mL
- MIC ([1]; LYM broth, 1.5 mM MgCl2): 1.56 µg/mL
- MIC ([1]; LYM broth, 2.5 mM MgCl2): 3.13 µg/mL
- MIC [1, 3]: 1.56 µg/mL
- MIC [1, 4]: 1.56 µg/mL
- MIC [1, 5]: 3.13 µg/mL
- MIC [1, 6]: 6.25 µg/mL
- MIC ([1]; LYM broth, pH 4.5): 1.56 µg/mL
- MIC ([1]; LYM broth, pH 5.5): 1.56 µg/mL
- MIC ([1]; LYM broth, pH 6.5): 1.56 µg/mL
- MIC [1, 7]: 6.25 µg/mL
- MIC (S. aureus ATCC 33593; [2]): 6.25 µg/mL
- MIC (S. aureus ATCC 33593; LYM broth, 0.5 mM MgCl2): 6.25 µg/mL
- MIC (S. aureus ATCC 33593; LYM broth, 1.5 mM MgCl2): 6.25 µg/mL
- MIC (S. aureus ATCC 33593; LYM broth, 2.5 mM MgCl2): 6.25 µg/mL
- MIC (S. aureus ATCC 33593; [3]): 6.25 µg/mL
- MIC (S. aureus ATCC 33593; [4]): 12.5 µg/mL
- MIC (S. aureus ATCC 33593; [5]): 50 µg/mL
- MIC (S. aureus ATCC 33593; [6]): >50 µg/mL
- MIC (S. aureus ATCC 33593; LYM broth, pH 4.5): 6.25 µg/mL
- MIC (S. aureus ATCC 33593; LYM broth, pH 5.5): 6.25 µg/mL
- MIC (S. aureus ATCC 33593; LYM broth, pH 6.5): 3.13 µg/mL
- MIC (S. aureus ATCC 33593; [7]): 25 µg/mL
- MIC (S. aureus ATCC 33591; [2]): 6.25 µg/mL
- MIC (S. aureus ATCC 33591; LYM broth, 0.5 mM MgCl2): 6.25 µg/mL
- MIC (S. aureus ATCC 33591; LYM broth, 1.5 mM MgCl2): 6.25 µg/mL
- MIC (S. aureus ATCC 33591; LYM broth, 2.5 mM MgCl2): 6.25 µg/mL
- MIC (S. aureus ATCC 33591; [3]): 6.25 µg/mL
- MIC (S. aureus ATCC 33591; [4]): 12.5 µg/mL
- MIC (S. aureus ATCC 33591; [5]): 50 µg/mL
- MIC (S. aureus ATCC 33591; [6]): 50 µg/mL
- MIC (S. aureus ATCC 33591; LYM broth, pH 4.5): 6.25 µg/mL
- MIC (S. aureus ATCC 33591; LYM broth, pH 5.5): 6.25 µg/mL
- MIC (S. aureus ATCC 33591; LYM broth, pH 6.5): 6.25 µg/mL
- MIC (S. aureus ATCC 33591; [7]): 25 µg/mL
